Experimental data taken from patent US20150157584A1, “INHIBITORS OF HIPPO-YAP SIGNALING PATHWAY” (The Regents of the University of California, priority 2012, published 2015).
Where two headings read alike, the source gives them in different places. Residues, ends and D or L forms follow the SMILES beside them. *: point of attachment. Cbz = O=C(OCc1ccccc1)*

What was measured:
YAP/TAZ [1] = experiment: immunoblotting / phos-tag gels of YAP/TAZ phosphorylation in cultured cell lines; assay type: cell-based, human; details: for YAP/TAZ activation by growth factors: EGF 50 ng/ml, PDGF 50 ng/ml, insulin 200 nM, FGF 10 ng/ml; for YAP phosphorylation by PDE inhibitors: MDA-MB-231, ibudilast 100 μM, IBMX 100 μM, rolipram 50 μM, theophylline 1 mM, 1 hr; for YAP/TAZ phosphorylation by BSA preparations: serum-starved HEK293A, 1 or 10 mg/ml BSA
Procedure: Immunoblotting was performed using standard protocol. […] The phos-tag reagents were purchased from Wako Chemicals, and gels containing phos-tag were prepared according to manufacture's instructions. YAP proteins can be separated into multiple bands in the presence of phos-tag depending on differential phosphorylation levels, with phosphorylated proteins run migrate slower.
(§1) Immunoblotting was performed using standard protocol. Antibodies for pYAP (S127), YAP, TAZ (V386), pCREB, CREB, pMLC2 (S19), pMLC2 (T18/S19), MST1, MST2, and Lats1 were from Cell Signaling Technology. Lats2 antibody was from Bethyl laboratories. HA-HRP, GFP, and MLC2 antibodies were from Santa Cruz biotechnology. Tubulin, HSP90 and Flag-HRP were purchased from Sigma Aldrich. PKA antibody was obtained from BD biosciences. GAPDH antibody was a gift from Dr. Yan Luo. Yki antibody was a gift from Dr. Kenneth Irvine. The phos-tag reagents were purchased from Wako Chemicals, and gels containing phos-tag and MnC12 were prepared according to manufacturer's instructions. YAP proteins can be separated into multiple bands on phos-tag gels, with the phosphorylated form of YAP proteins migrating at a slower speed.

YAP/TAZ [2] = experiment: immunoblotting of YAP/TAZ phosphorylation in mouse cells (primary hepatocytes, 3T3-L1); assay type: cell-based
Procedure: Immunoblotting was performed using standard protocol. Antibodies for pYAP (S127), pYAP(S381/384), pMST1/2, TAZ, pERK, ERK1/2, Lats1, MST1, pAKT (S473), pS6K, S6K were from Cell Signaling, antibodies for YAP (H-125), CTGF, Cyr61, Gq/11, G13 and 14-3-3θ were from Santa Cruz, TEAD1 antibody was from BD biosciences, pTAZ (S89) antibody was in-house raised, GAPDH antibody was a gift from Dr. Yan Luo. The phos-tag reagents were purchased from Wako Chemicals, and gels containing phos-tag were prepared according to manufacture's instructions. YAP proteins can be separated into multiple bands in the presence of phos-tag depending on differential phosphorylation levels, with phosphorylated proteins run migrate slower.
as §1

YAP = assay type: cell-based, human
Lats1 = Lats1 immunoprecipitation kinase assay with GST-YAP substrate; assay type: cell-based, human; details: HEK293A; Ki16425 10 μM 30 min; C3 2 μg/ml 4 h
Procedure: Lats1 or HA-Lats2 kinase assays were performed similarly but using GST-YAP as substrates in the absence of [γ-^32P] ATP. The phosphorylation of GST-YAP at S127 was determined by immunoblotting using pYAP antibody.
Cells were lysed using mild lysis buffer (50 mM HEPES at pH 7.5, 150 mM NaCl, 1 mM EDTA, 1% NP-40, 10 mM pyrophosphate, 10 mM glycerophosphate, 50 mM NaF, 1.5 mM Na3VO4, protease inhibitor cocktail [Roche], 1 mM PMSF). Cell lysates were cleared and used for immunoprecipitation. Lats1 antibody (Cell Signaling Technology) was mixed with cell lysates for 1 hr at 4° C., and then protein A agarose beads were added in for 1 hr. After four washes with lysis buffer, beads were washed once with wash buffer (40 mM HEPES, 200 mM NaCl) and once with kinase assay buffer (30 mM HEPES, 50 mM potassium acetate, 5 mM MgCl2). The immunoprecipitated Lats1 was then subjected to a kinase assay in the presence of 500 μM cold ATP, 10 μCi [γ-32P] ATP, and 1 μg of GST-YAP expressed and purified from Escherichia coli as substrate. The reaction mixtures were incubated for 30 min at 30° C., terminated with SDS sample buffer, and subjected to SDS-PAGE and immunoblotting.

[3] = HEK293A pre-treated 30 min (1 μM Torin1, 10 μM U0126, 10 μM SB253580, 10 nM wortmannin), then 10% FBS 1 h

## insulin: growth factor tested
YAP/TAZ [1]; HEK293A
  YAP/TAZ activation by growth factors: not involved

## C[S+]([O-])c1ccc(-c2nc(-c3ccc(F)cc3)c(-c3ccncc3)[nH]2)cc1 (centres unmarked) [SB253580]
YAP/TAZ [1]; [3]
  effect on the ability of FBS to dephosphorylate YAP/TAZ: no effect

## glucagon: ligand known to activate PKA
YAP/TAZ [2]; primary hepatocytes isolated from mice, glucagon
  YAP phosphorylation: increased
YAP/TAZ [2]; primary mouse hepatocytes, 2 μM glucagon, 1 h
  YAP phosphorylation: increased

## C/C1=C/C(=O)O[C@@H]2C[C@@H](CC[C@H](C)/C=C\CC1)O[C@@](O)([C@@H]1CSC(=O)N1)C2 [latrunculin B]
YAP/TAZ [1]; HEK293A 1 μg/ml LatB 30 min, MCF10A localization
  effect on the effects of LPA or S1P on YAP: blocked

## CO[C@@H]1[C@@H]2OP(=O)(O)OC[C@H]2O[C@H]1n1c(Sc2ccc(Cl)cc2)nc2c(N)ncnc21 [8-CPT-2′-O-Me-cAMP]
YAP/TAZ [1]; HEK293A, 1 h
  YAP phosphorylation by PKA or Epac selective activators: less dramatic

## CCC(=O)N1CCN(c2ccc(-n3c(=O)ccc4cnc5ccc(-c6cnc7ccccc7c6)cc5c43)cc2C(F)(F)F)CC1 [torin]
YAP/TAZ [1]; [3]
  effect on the ability of FBS to dephosphorylate YAP/TAZ: no effect

## EGF: growth factor tested
YAP/TAZ [1]; HEK293A
  YAP/TAZ activation by growth factors: not involved

## PDGF
YAP/TAZ [1]; HEK293A
  YAP/TAZ activation by growth factors: not involved

## CC(C)C[C@@H](C=O)NC(=O)[C@H](CC(C)C)NC(=O)[C@H](CC(C)C)NC(=O)OCc1ccccc1 [MG132] (Cbz-Leu-Leu-Leu-aldehyde)
YAP
  YAP protein levels under various doses of C108 with proteasome inhibitor: mostly maintained

## phosphatidic acid [PA]
YAP/TAZ [1]; HEK293A, 100 μM lipid
  dephosphorylation of YAP/TAZ by phospholipids: strongly induced dephosphorylation
YAP/TAZ [1]; HEK293A, 1 h
  concentration needed to induce YAP dephosphorylation: 100 µM
YAP/TAZ [1]; HEK293A, different doses of LPA, S1P, LPC or PA for 1 h
  YAP dephosphorylation, different doses: much higher concentrations
YAP/TAZ [1]; YAP dephosphorylation, HEK293A
  potency relative to LPA (times less potent): 1,000 times

## Cc1noc(-c2ccc(CSCCC(=O)O)cc2)c1NC(=O)OC(C)c1ccccc1Cl (centres unmarked) [Ki16425]
Lats1
  effect on Lats1 inhibition by LPA, S1P, and serum: effectively blocked
YAP/TAZ [1]; HEK293A, Ki16425 10 μM, 30 min
  effect on LPA-induced dephosphorylation of YAP/TAZ: blocked
  effect on S1P-induced dephosphorylation of YAP/TAZ: not
YAP/TAZ [1]; HEK293A, Ki16425 10 μM, particularly at 0.2% serum
  effect on the ability of serum to repress YAP/TAZ phosphorylation: partially inhibited

## Oc1cc2c(cc1O)[C@H]1c3ccccc3CN[C@@H]1CC2 (racemic) [Dihydrexidine]
YAP/TAZ [1]; U2OS cells, 10 μM, 1 h
  YAP phosphorylation: strong increase

## N#CC(=C(/N)Sc1ccccc1N)/C(C#N)=C(\N)Sc1ccccc1N [U0126]
YAP/TAZ [1]
  effect on the ability of FBS to dephosphorylate YAP/TAZ: no effect

## Cn1c(=O)c2[nH]cnc2n(C)c1=O [theophylline]
YAP/TAZ [1]
  YAP phosphorylation by PDE inhibitors: induced YAP phosphorylation

## O=C(Nc1ncnc2c1ncn2[C@@H]1O[C@@H]2COP(=O)(O)O[C@H]2[C@H]1O)c1ccccc1 [b-Bnz-cAMP]
YAP/TAZ [1]; HEK293A, 1 h
  YAP phosphorylation by PKA or Epac selective activators: dramatically increased

## COc1ccc(C2CNC(=O)C2)cc1OC1CCCC1 (centres unmarked) [rolipram]
YAP/TAZ [1]
  YAP phosphorylation by PDE inhibitors: induced YAP phosphorylation

## fatty acid-free BSA: fatty acid-free BSA preparation
YAP/TAZ [1]; 1 h
  YAP/TAZ phosphorylation by BSA preparations: no activity

## COC[C@H]1OC(=O)c2coc3c2[C@@]1(C)C1=C(C3=O)[C@@H]2CCC(=O)[C@@]2(C)C[C@H]1OC(C)=O [wortmannin]
YAP/TAZ [1]; [3]
  effect on the ability of FBS to dephosphorylate YAP/TAZ: no effect

## Fraction V BSA: BSA prepared by ethanol precipitation
YAP/TAZ [1]; 1 h
  YAP/TAZ phosphorylation by BSA preparations: no activity
